Results: patent publication US11999993B2, “Use of biomarkers in identifying cancer patients that will be responsive to treatment with a PRMT5 inhibitor” (Janssen Pharmaceutica NV, priority 2017, dated 2024)

Columns and labels:
NCI-H1048 = assay: Cellular sensitivity, lung cancer cell line panel (SCLC); format: cell-based; conditions: Homo sapiens, NCI-H1048, PIK3CA H1047R
LU99a = assay: as above; format: cell-based; conditions: Homo sapiens, LU-99A, PIK3CA T1025A
LC-2/ad = assay: Proliferation sensitivity, NSCLC U2AF1-S34F cell panel; format: cell-based; conditions: Homo sapiens, Adenocarcinoma
H69V = assay: Cellular sensitivity, lung cancer cell line panel (SCLC); format: cell-based; conditions: PIK3CA G106_R108del
NCI-H226 = assay: Lung cell line panel sensitivity, Cyclin D1 pathway amplified NSCLC; format: cell-based; conditions: Homo sapiens; NCI-H226, CDK4 amplified, Adenocarcinoma
HLC1 = assay: as above; format: cell-based; conditions: HLC1, CDK6 amplified, Squamous Cell Carcinoma
HCC78 = assay: Proliferation sensitivity, NSCLC U2AF1-S34F cell panel; format: cell-based; conditions: Homo sapiens, Adenocarcinoma
EPLC272H = assay: Lung cell line panel sensitivity, Cyclin D1 pathway amplified NSCLC; format: cell-based; conditions: Homo sapiens, EPLC-272H, Adenocarcinoma
NCI-H441 = assay: Proliferation sensitivity, NSCLC U2AF1-S34F cell panel; format: cell-based; conditions: Homo sapiens, Adenocarcinoma
PRMT5 = PRMT5 (Homo sapiens, UniProt O14744); conditions: Chan-Penebre et al., Nat Chem Biol 2015; cited from earlier work
Sequence of PRMT5 (O14744 whole entry): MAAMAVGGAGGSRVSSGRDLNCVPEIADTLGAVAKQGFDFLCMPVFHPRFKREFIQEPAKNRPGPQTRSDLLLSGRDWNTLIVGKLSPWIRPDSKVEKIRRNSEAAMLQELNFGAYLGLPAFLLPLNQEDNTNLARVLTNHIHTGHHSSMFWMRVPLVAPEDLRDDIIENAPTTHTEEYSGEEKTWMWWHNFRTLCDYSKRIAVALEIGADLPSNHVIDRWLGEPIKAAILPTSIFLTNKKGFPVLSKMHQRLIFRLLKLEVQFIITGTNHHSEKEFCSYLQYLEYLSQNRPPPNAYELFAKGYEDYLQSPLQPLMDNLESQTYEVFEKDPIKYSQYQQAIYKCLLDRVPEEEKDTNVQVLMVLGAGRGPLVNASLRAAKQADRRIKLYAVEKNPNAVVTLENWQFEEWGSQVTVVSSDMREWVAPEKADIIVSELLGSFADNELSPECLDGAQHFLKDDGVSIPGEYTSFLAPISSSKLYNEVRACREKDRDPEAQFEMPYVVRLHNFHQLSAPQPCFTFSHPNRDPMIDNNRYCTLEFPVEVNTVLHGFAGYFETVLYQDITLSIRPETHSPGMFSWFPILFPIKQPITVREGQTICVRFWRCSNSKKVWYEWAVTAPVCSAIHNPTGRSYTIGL
Sequence of PRMT5 (Q9BQA1 whole entry partner): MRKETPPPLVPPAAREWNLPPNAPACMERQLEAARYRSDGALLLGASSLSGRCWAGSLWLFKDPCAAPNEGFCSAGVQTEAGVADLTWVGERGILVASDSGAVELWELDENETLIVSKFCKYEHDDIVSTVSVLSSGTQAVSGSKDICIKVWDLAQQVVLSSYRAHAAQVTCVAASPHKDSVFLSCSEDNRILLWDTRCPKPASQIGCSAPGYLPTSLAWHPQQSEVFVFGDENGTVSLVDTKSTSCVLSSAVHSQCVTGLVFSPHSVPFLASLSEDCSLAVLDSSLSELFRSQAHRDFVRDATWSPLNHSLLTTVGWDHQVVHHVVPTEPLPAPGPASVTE

MCL xenograft models = conditions: multiple MCL xenograft models; Chan-Penebre et al. 2015; cited from earlier work

Row | GI50 (NCI-H1048) | GI50 (LU99a) | GI50 (H69V) | GI50 (NCI-H226) | GI50 (HCC78) | GI50 (NCI-H441) | SMILES | GI50 (LC-2/ad) | GI50 (HLC1) | GI50 (EPLC272H) | PRMT5 inhibitor potency (PRMT5) | anti-tumor activity (MCL xenograft models)
1 | 94.6 nM | 129 nM | 85.6 nM | 205 nM | 108 nM | 98.4 nM | Nc1ncnc2c1ccn2[C@@H]1O[C@H](COc2ccc3cc(Br)cnc3c2)[C@@H](O)[C@H]1O [Compound 2] | 116 nM | 96.4 nM | 98.5 nM |  | 
2 |  |  |  |  |  |  | O=C(NC[C@H](O)CN1CCc2ccccc2C1)c1cc(NC2COC2)ncn1 [EPZ015666] |  |  |  | sub-nanomolar | anti-tumor activity in multiple MCL xenograft models
